Among the test systems are 786-0 renal; SK-MEL-2 melanoma; UACC-257 melanoma; SW-620 colon; OVCAR-8 ovarian; HT29 colon; HOP-92 NSCLC; NCI-H460 lung; OVCAR-3 ovarian; EKVX NSCLC; MOLT-4 leukemia; IGROV1 ovarian; COLO 205 colon; A549 NSCLC; SNB-75 CNS; NCI-H23 lung; A498 renal; OVCAR-5 ovarian; NCI-H226 lung.
What all share (experiment): DTP human tumour cell line panel, 48 h

SMILES strings stand for the structures.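 A five-concentration, 48-hour dose response in 96-well plates underlies each endpoint, interpolated linearly between surrounding concentrations. TGI is the concentration that stops growth completely.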

What is called TGI is the concentration giving total growth inhibition. The low end stands for greater sensitivity of the cells, the high end for lower sensitivity of the cells.

`Cn1ccc2c(C(=O)c3ccccc3)cccc2c1=O`: the TGI in the test with 786-0 renal, in the test on SK-MEL-2 melanoma, with UACC-257 melanoma, in the test on SW-620 colon, with OVCAR-8 ovarian and in the test on HT29 colon was over 100 µM throughout. Moreover, the TGI in the test with HOP-92 NSCLC, with NCI-H460 lung, with OVCAR-3 ovarian, in the test with EKVX NSCLC, in the test with MOLT-4 leukemia and in the test on IGROV1 ovarian was over 100 µM throughout. Also, the results for the TGI in the test with COLO 205 colon, in the test with A549 NSCLC and with SNB-75 CNS were over 100 µM, over 100 µM and 72.3 µM, respectively.
On to `CCCC/C=C1\CCC(C)(CN(C)C)C1=O` (centres undefined), for which the TGI in the test with 786-0 renal, in the test with SK-MEL-2 melanoma, in the test on NCI-H23 lung, with A498 renal, with UACC-257 melanoma and in the test on SW-620 colon was over 100 µM each time. The TGI in the test on OVCAR-8 ovarian, in the test with HT29 colon, in the test with HOP-92 NSCLC, with NCI-H460 lung, in the test on OVCAR-5 ovarian and in the test on OVCAR-3 ovarian was over 100 µM each time. Moreover, the TGI in the test on EKVX NSCLC, in the test on MOLT-4 leukemia, in the test on IGROV1 ovarian and with A549 NSCLC was over 100 µM each time.
Take `CCOC(=O)/C(=C\c1cccs1)P(=O)(OCC)OCC`: the total growth inhibition concentration (TGI) in the test on 786-0 renal was found to be 47.2 µM; with SK-MEL-2 melanoma it was 38.1 µM; in the test on NCI-H23 lung, 35.2 µM; in the test on UACC-257 melanoma, 61 µM; in the test with SW-620 colon it was 36.6 µM; in the test on OVCAR-8 ovarian, 77.2 µM. Also, the TGI in the test with HT29 colon was 36.3 µM; with HOP-92 NSCLC, 84.5 µM; with NCI-H460 lung, 46.9 µM; with OVCAR-5 ovarian, 45.8 µM; in the test on OVCAR-3 ovarian, 41.8 µM; with EKVX NSCLC, 60.3 µM. The TGI is over 100 µM in the test on MOLT-4 leukemia; 30.4 µM in the test with COLO 205 colon; 43.3 µM with NCI-H226 lung; 50.8 µM with A549 NSCLC; over 100 µM in the test on SNB-75 CNS.
As for `CC(C)(CN1CCCCC1)C(=O)/C=C/c1ccc(Cl)cc1`, the TGI in the test on 786-0 renal is 9.68 µM; in the test on NCI-H23 lung, 6.76 µM; in the test with A498 renal, 10.8 µM; in the test on UACC-257 melanoma, 19.9 µM; with SW-620 colon it was 10.8 µM; with OVCAR-8 ovarian, 5.51 µM. The total growth inhibition concentration (TGI) in the test on HT29 colon was 11.7 µM; with HOP-92 NSCLC it was 4.64 µM; in the test with NCI-H460 lung, 8.21 µM; in the test with OVCAR-5 ovarian it was 23.5 µM; with OVCAR-3 ovarian it was 11.9 µM; in the test on EKVX NSCLC, 10 µM. For the same molecule, the TGI in the test on MOLT-4 leukemia turned out to be 5.11 µM; in the test with COLO 205 colon, 17.5 µM; in the test with NCI-H226 lung, 14.7 µM; with A549 NSCLC it was 14.4 µM; in the test on SNB-75 CNS it was 11.4 µM.
As to `CC(C)C(Sc1nc(-c2ccccc2)c(-c2ccccc2)[nH]1)C(=O)NN` (centres undefined), the TGI in the test with 786-0 renal, in the test on SK-MEL-2 melanoma, in the test with NCI-H23 lung, in the test with A498 renal, with UACC-257 melanoma and in the test on SW-620 colon was over 100 µM in each case. Moreover, the TGI in the test on OVCAR-8 ovarian, with HT29 colon, in the test with HOP-92 NSCLC, in the test with NCI-H460 lung, in the test on OVCAR-5 ovarian and with OVCAR-3 ovarian was over 100 µM in each case. The TGI in the test on MOLT-4 leukemia, with IGROV1 ovarian, with COLO 205 colon, with NCI-H226 lung, with A549 NSCLC and in the test with SNB-75 CNS was over 100 µM in each case.
For `C/C(=N\NC(=O)c1ccncc1)c1ccccc1F`, the TGI in the test on 786-0 renal, in the test with SK-MEL-2 melanoma, with NCI-H23 lung, in the test on A498 renal, with SW-620 colon and in the test with OVCAR-8 ovarian was over 10 µM each time. Besides, the TGI in the test with HOP-92 NSCLC, in the test with NCI-H460 lung, in the test with OVCAR-5 ovarian, in the test on OVCAR-3 ovarian, in the test with MOLT-4 leukemia and in the test on IGROV1 ovarian was over 10 µM each time. The TGI in the test on COLO 205 colon, in the test with NCI-H226 lung, with A549 NSCLC and in the test on SNB-75 CNS was over 10 µM throughout.
Regarding `O=C(O)CCc1cccc2c1oc1c(CCC(=O)O)cccc12`, the TGI in the test on 786-0 renal, in the test with SK-MEL-2 melanoma, in the test on NCI-H23 lung, with A498 renal, in the test on UACC-257 melanoma and with SW-620 colon was over 100 µM throughout. For the same molecule, the TGI with OVCAR-8 ovarian, in the test on HT29 colon, with HOP-92 NSCLC, with NCI-H460 lung, with OVCAR-5 ovarian and in the test on OVCAR-3 ovarian was over 100 µM each time. Further, the TGI in the test with MOLT-4 leukemia, in the test with IGROV1 ovarian, in the test on COLO 205 colon, with NCI-H226 lung, in the test with A549 NSCLC and with SNB-75 CNS was over 100 µM each time.
With `O=C(NCCCCCCNC(=O)OCCSCCn1cc(C(=O)NC(=O)OCc2ccccc2)c(=O)[nH]c1=O)OCCSCCn1cc(C(=O)NC(=O)OCc2ccccc2)c(=O)[nH]c1=O`, the TGI with 786-0 renal, in the test on SK-MEL-2 melanoma, with NCI-H23 lung, in the test with A498 renal, with UACC-257 melanoma and in the test on SW-620 colon was over 100 µM throughout. Also, the TGI with OVCAR-8 ovarian, in the test with HT29 colon, in the test with HOP-92 NSCLC, in the test with NCI-H460 lung, in the test on OVCAR-5 ovarian and in the test with OVCAR-3 ovarian was over 100 µM throughout. In addition, the TGI with EKVX NSCLC, in the test on MOLT-4 leukemia, in the test on IGROV1 ovarian, in the test with COLO 205 colon, with NCI-H226 lung and with A549 NSCLC was over 100 µM in each case.
With `COc1cc(C(O)C(=O)c2nc3ccc([N+](=O)[O-])cc3[nH]c2=O)ccc1O` (centres undefined), the TGI with 786-0 renal is over 100 µM; in the test on SK-MEL-2 melanoma it was over 100 µM; in the test with NCI-H23 lung it was over 100 µM; with A498 renal, 97 µM; in the test with SW-620 colon, over 100 µM; with OVCAR-8 ovarian, over 100 µM. Also, the TGI in the test on HT29 colon, in the test on NCI-H460 lung, with OVCAR-5 ovarian, in the test on OVCAR-3 ovarian, in the test on EKVX NSCLC and with MOLT-4 leukemia was over 100 µM in each case. Besides, the TGI in the test with IGROV1 ovarian, in the test on COLO 205 colon, with NCI-H226 lung and with A549 NSCLC was over 100 µM in each case.
Take `CSc1sc(=S)sc1C(=O)N(C)c1ccccc1`: the TGI in the test on 786-0 renal, in the test on SK-MEL-2 melanoma, in the test on NCI-H23 lung, in the test on SW-620 colon, in the test on OVCAR-8 ovarian and with HT29 colon was over 100 µM in each case. Further, the TGI in the test with NCI-H460 lung, with OVCAR-5 ovarian, with OVCAR-3 ovarian, with EKVX NSCLC, with MOLT-4 leukemia and in the test with IGROV1 ovarian was over 100 µM throughout. Also, the TGI was over 100 µM in the test on COLO 205 colon, over 100 µM with NCI-H226 lung, over 100 µM with A549 NSCLC and 82.5 µM in the test with SNB-75 CNS.
On to `CCCCCCCCCCCCCCCCOCC(CP(=O)([O-])OCC[n+]1ccccc1)OC` (centres undefined), for which the TGI was 28.7 µM in the test on 786-0 renal; 31.9 µM with SK-MEL-2 melanoma; 14.8 µM with NCI-H23 lung; 25.5 µM with A498 renal; 28.8 µM with UACC-257 melanoma; 31.6 µM in the test on SW-620 colon. Further, the TGI in the test with OVCAR-8 ovarian came to 30 µM; with HT29 colon, 15.9 µM; with HOP-92 NSCLC, 5.97 µM; in the test with OVCAR-3 ovarian it was 27.1 µM; with EKVX NSCLC, 34.7 µM; in the test with MOLT-4 leukemia it was 18.9 µM. Moreover, the TGI in the test with IGROV1 ovarian is 17.6 µM; in the test with COLO 205 colon, 20.5 µM; with NCI-H226 lung, 15.5 µM; in the test with A549 NSCLC it was 24.1 µM; in the test on SNB-75 CNS it was 22.3 µM.
Regarding `CC(O)c1ccc[n+](Cc2ccccc2)c1` (centres undefined), the TGI with 786-0 renal, with SK-MEL-2 melanoma, with NCI-H23 lung, in the test on UACC-257 melanoma, with SW-620 colon and in the test on OVCAR-8 ovarian was over 400 µM in each case. The TGI in the test on HT29 colon, in the test with HOP-92 NSCLC, in the test on NCI-H460 lung, in the test on OVCAR-5 ovarian, in the test on OVCAR-3 ovarian and in the test with EKVX NSCLC was over 400 µM in each case. In addition, the TGI with MOLT-4 leukemia, in the test on IGROV1 ovarian, with COLO 205 colon, in the test on NCI-H226 lung and in the test on A549 NSCLC was over 400 µM throughout.
Take `O=C(O)CCC(NC(=O)c1ccccc1)C(=O)O` (centres undefined): the TGI with 786-0 renal, in the test with SK-MEL-2 melanoma, with NCI-H23 lung, with A498 renal, in the test with UACC-257 melanoma and in the test on SW-620 colon was over 100 µM each time. For the same molecule, the TGI in the test with OVCAR-8 ovarian, with HT29 colon, in the test with HOP-92 NSCLC, in the test on NCI-H460 lung, with OVCAR-5 ovarian and in the test on OVCAR-3 ovarian was over 100 µM each time. For the same molecule, the TGI in the test with EKVX NSCLC, in the test with MOLT-4 leukemia, in the test on IGROV1 ovarian, with COLO 205 colon, in the test on A549 NSCLC and with SNB-75 CNS was over 100 µM throughout.

These data come from PubChem BioAssay (NCI).
